Reference: patent US20030114382A1, “Glycogen synthase kinase function in endothelial cells” (priority 2001, published 2003)

How the values were obtained:
[1] = tested on: GSK3β phosphorylation at serine 9; assay: Immunoblot of GSK3β phosphorylation at serine 9 in HUVECs; format: cell-based, human; conditions: for serum-induced phosphorylation of GSK3β: serum-starved HUVECs, 1 hour pretreatment with agent, 10% FBS 1 hour
Method: Cell culture and adenoviral vectors. Human umbilical vein ECs (HUVECs) were isolated as previously described (29) and cultured in EGM media (Clonetics, Walkersville, Md.). Four to six passage cells were used in this study. To examine the regulation of GSK3β phosphorylation, HUVECs were serum-starved for 15 hours, treated with the indicated agents for 1 hour, and stimulated with 10% fetal bovine serum.
Immunoblot analysis. HUVECs were washed in phosphate-buffered saline and harvested by scraping in 50 mM Tris-HCl (pH 7.2), 250 mM NaCl, 1% NP40, 0.05% SDS, 2 mM EDTA, 0.5% deoxycholic acid, 10 mM 13-glycerophosphate, 1 mM vanadate, 1 mM phenyl methyl sulfonyl fluoride (PMSF). One mini tablet of protease inhibitor cocktail (Roche, Summerville, N.J.) per 10 ml of lysis buffer, vanadate, and PMSF were added just prior to use. Protein concentration was determined with protein assay kit (Pierce, Rockford, Ill.). Protein (20 μg) was separated on SDS-polyacrylamide electrophoresis gel and transferred to a polyvinylidene difluoride membrane (Millipore, Bedford, Mass.). The membrane was blocked with T-PBS (1×PBS, 0.3% Tween-20) containing 3% dry milk and incubated with primary antibody overnight at 4° C. After three washes with T-PBS, the membrane was reblocked and incubated with secondary antibody for 1 hour at room temperature. ECL or ECL-PLUS (Amersham, Piscataway, N.J.) was used for detection. To reprobe the membrane, it was treated with Restore Western Blot stripping buffer (Pierce, Rockford, Ill.). The primary antibodies used were anti-phospho GSK-3β (Ser9) antibody (1:750 dilution, Cell Signaling Technology, Beverly, Mass.), anti-phospho Akt (Ser473) antibody (1:250 dilution, Cell Signaling Technology, Beverly, Mass.), anti-total GSK-3β antibody (1:1000 dilution, Santa Cruz, Santa Cruz, Calif.), and anti-a tubulin antibody (1:4000 dilution, Oncogene, Boston, Mass.).

Akt phosphorylation = assay: Immunoblot of Akt phosphorylation in HUVECs; format: cell-based, human; conditions: for Akt phosphorylation: HUVECs, single agent; for level of Akt phosphorylation: combined administration of PD98059 and SB203480, presence or absence of PI3K inhibition
Method: To examine the regulation of GSK3β phosphorylation, HUVECs were serum-starved for 15 hours, treated with the indicated agents for 1 hour, and stimulated with 10% fetal bovine serum.
Immunoblot analysis. HUVECs were washed in phosphate-buffered saline and harvested by scraping in 50 mM Tris-HCl (pH 7.2), 250 mM NaCl, 1% NP40, 0.05% SDS, 2 mM EDTA, 0.5% deoxycholic acid, 10 mM 13-glycerophosphate, 1 mM vanadate, 1 mM phenyl methyl sulfonyl fluoride (PMSF). One mini tablet of protease inhibitor cocktail (Roche, Summerville, N.J.) per 10 ml of lysis buffer, vanadate, and PMSF were added just prior to use. Protein concentration was determined with protein assay kit (Pierce, Rockford, Ill.). Protein (20 μg) was separated on SDS-polyacrylamide electrophoresis gel and transferred to a polyvinylidene difluoride membrane (Millipore, Bedford, Mass.). The membrane was blocked with T-PBS (1×PBS, 0.3% Tween-20) containing 3% dry milk and incubated with primary antibody overnight at 4° C. After three washes with T-PBS, the membrane was reblocked and incubated with secondary antibody for 1 hour at room temperature. ECL or ECL-PLUS (Amersham, Piscataway, N.J.) was used for detection. To reprobe the membrane, it was treated with Restore Western Blot stripping buffer (Pierce, Rockford, Ill.). The primary antibodies used were anti-phospho GSK-3β (Ser9) antibody (1:750 dilution, Cell Signaling Technology, Beverly, Mass.), anti-phospho Akt (Ser473) antibody (1:250 dilution, Cell Signaling Technology, Beverly, Mass.), anti-total GSK-3β antibody (1:1000 dilution, Santa Cruz, Santa Cruz, Calif.), and anti-a tubulin antibody (1:4000 dilution, Oncogene, Boston, Mass.). The secondary antibodies were anti-rabbit IgG/HRP conjugate or anti-mouse IgG/HRP conjugate (1:2500 dilution, Promega, San Luis Obispo, Calif.).

| SMILES | serum-induced phosphorylation of GSK3β [1] | Akt phosphorylation (Akt phosphorylation) | level of Akt phosphorylation (Akt phosphorylation) | induction of GSK3β phosphorylation by 8-bromo cAMP or forskolin ([1]; pretreatment with H89, serum-deprived HUVECs) |
| --- | --- | --- | --- | --- |
| COc1cccc(-c2cc(=O)c3ccccc3o2)c1N [PD98059] | partially inhibited | not | detectably elevated |  |
| O=S(=O)(NCCNC/C=C/c1ccc(Br)cc1)c1cccc2cnccc12 [H89] | inhibited | promoted |  | blocked |
| C[S+]([O-])c1ccc(-c2nc(-c3ccncc3)c(-c3ccc(F)cc3)[nH]2)cc1 (stereo not drawn) [SB203480] | partially inhibited | not | detectably elevated |  |
